According to PubChem BioAssay AID1259407 (Chemical Carcinogenesis Research Information System (CCRIS), 2018):
Active and inactive are the calls of the source. No rule for the calls is given here.

Tested on: CCRIS mutagenicity, Ames/micronucleus/aberration tests
Assay: CCRIS mutagenicity studies

Measured: mutagenic call

O=C1CN(/N=C/c2ccc([N+](=O)[O-])o2)C(=O)N1
inactive: Test System: AMES SALMONELLA TYPHIMURIUM, Strain/Indicator: TA98, Metabolic Activation: NONE inactive; negative | Test System: AMES SALMONELLA TYPHIMURIUM, Strain/Indicator: TA98, Metabolic Activation: S-9 inactive; negative | Test System: AMES SALMONELLA TYPHIMURIUM, Strain/Indicator: TA1535, Metabolic Activation: HAMSTER, LIVER, S-9, AROCLOR 1254, Method: PREINCUBATION inactive; negative | Test System: AMES SALMONELLA TYPHIMURIUM, Strain/Indicator: TA1535, Metabolic Activation: NONE, Method: PREINCUBATION inactive; negative | Test System: AMES SALMONELLA TYPHIMURIUM, Strain/Indicator: TA1535, Metabolic Activation: RAT, LIVER, S-9, AROCLOR 1254, Method: PREINCUBATION inactive; negative | Test System: AMES SALMONELLA TYPHIMURIUM, Strain/Indicator: TA1537, Metabolic Activation: HAMSTER, LIVER, S-9, AROCLOR 1254, Method: PREINCUBATION inactive; negative | Test System: AMES SALMONELLA TYPHIMURIUM, Strain/Indicator: TA1537, Metabolic Activation: NONE, Method: FLUCTUATION (MICROTITER) inactive; negative | Test System: AMES SALMONELLA TYPHIMURIUM, Strain/Indicator: TA1537, Metabolic Activation: NONE, Method: PREINCUBATION inactive; negative | Test System: AMES SALMONELLA TYPHIMURIUM, Strain/Indicator: TA1537, Metabolic Activation: RAT, LIVER, S-9, AROCLOR 1254, Method: PREINCUBATION inactive; negative | Test System: AMES SALMONELLA TYPHIMURIUM, Strain/Indicator: TA7001, Metabolic Activation: NONE, Method: FLUCTUATION (MICROTITER) inactive; negative | Test System: AMES SALMONELLA TYPHIMURIUM, Strain/Indicator: TA7003, Metabolic Activation: NONE, Method: FLUCTUATION (MICROTITER) inactive; negative | Test System: CHINESE HAMSTER OVARY, Strain/Indicator: CHO-AS52, Metabolic Activation: NONE inactive; negative | Test System: CHINESE HAMSTER OVARY, Strain/Indicator: CHO-AS52, Metabolic Activation: RAT, LIVER, S-9, 3-METHYLCHOLANTHRENE inactive; negative | Test System: CHINESE HAMSTER OVARY, Strain/Indicator: CHO-K1-BH4, Metabolic Activation: NONE inactive; negative | Test System: CHINESE HAMSTER OVARY, Strain/Indicator: CHO-UV5, Metabolic Activation: NONE inactive; negative | Test System: E. COLI, Strain/Indicator: WP2, Metabolic Activation: NONE, Method: FLUCTUATION TEST inactive; negative
active: End Point: IN VITRO CHROMOSOMAL ABERRATIONS, Test System: CHO CELLS, Metabolic Activation: NONE active; positive | End Point: IN VITRO CHROMOSOMAL ABERRATIONS, Test System: CHO CELLS, Metabolic Activation: RAT, LIVER, S-9, AROCLOR 1254 active; positive | Test System: AMES SALMONELLA TYPHIMURIUM, Strain/Indicator: TA97, Metabolic Activation: NONE, Method: FLUCTUATION TEST active; positive | Test System: AMES SALMONELLA TYPHIMURIUM, Strain/Indicator: TA97, Metabolic Activation: NONE, Method: STANDARD PLATE active; positive | Test System: AMES SALMONELLA TYPHIMURIUM, Strain/Indicator: TA98(1,8-DNP6), Metabolic Activation: NONE, Method: STANDARD PLATE active; positive | Test System: AMES SALMONELLA TYPHIMURIUM, Strain/Indicator: TA98(1,8-DNP6), Metabolic Activation: RAT, LIVER, S-9, 3-METHYLCHOLANTHRENE, Method: STANDARD PLATE active; positive | Test System: AMES SALMONELLA TYPHIMURIUM, Strain/Indicator: TA98(NR), Metabolic Activation: NONE, Method: STANDARD PLATE active; positive | Test System: AMES SALMONELLA TYPHIMURIUM, Strain/Indicator: TA98(NR), Metabolic Activation: RAT, LIVER, S-9, 3-METHYLCHOLANTHRENE, Method: STANDARD PLATE active; positive | Test System: AMES SALMONELLA TYPHIMURIUM, Strain/Indicator: TA98, Metabolic Activation: HAMSTER, LIVER, S-9, AROCLOR 1254, Method: PREINCUBATION active; positive | Test System: AMES SALMONELLA TYPHIMURIUM, Strain/Indicator: TA98, Metabolic Activation: NONE, Method: FLUCTUATION (MICROTITER) active; positive | Test System: AMES SALMONELLA TYPHIMURIUM, Strain/Indicator: TA98, Metabolic Activation: NONE, Method: PREINCUBATION active; positive | Test System: AMES SALMONELLA TYPHIMURIUM, Strain/Indicator: TA98, Metabolic Activation: NONE, Method: STANDARD PLATE active; positive | Test System: AMES SALMONELLA TYPHIMURIUM, Strain/Indicator: TA98, Metabolic Activation: RAT, LIVER, S-9, 3-METHYLCHOLANTHRENE, Method: STANDARD PLATE active; positive | Test System: AMES SALMONELLA TYPHIMURIUM, Strain/Indicator: TA98, Metabolic Activation: RAT, LIVER, S-9, AROCLOR 1254, Method: PREINCUBATION active; positive | Test System: AMES SALMONELLA TYPHIMURIUM, Strain/Indicator: TA100, Metabolic Activation: HAMSTER, LIVER, S-9, AROCLOR 1254, Method: PREINCUBATION active; positive | Test System: AMES SALMONELLA TYPHIMURIUM, Strain/Indicator: TA100, Metabolic Activation: NONE active; positive | Test System: AMES SALMONELLA TYPHIMURIUM, Strain/Indicator: TA100, Metabolic Activation: NONE, Method: PREINCUBATION active; positive | Test System: AMES SALMONELLA TYPHIMURIUM, Strain/Indicator: TA100, Metabolic Activation: NONE, Method: STANDARD PLATE active; positive | Test System: AMES SALMONELLA TYPHIMURIUM, Strain/Indicator: TA100, Metabolic Activation: RAT, LIVER, S-9, AROCLOR 1254, Method: PREINCUBATION active; positive | Test System: AMES SALMONELLA TYPHIMURIUM, Strain/Indicator: TA100, Metabolic Activation: S-9 active; positive | Test System: AMES SALMONELLA TYPHIMURIUM, Strain/Indicator: TA102, Metabolic Activation: NONE, Method: STANDARD PLATE active; positive | Test System: AMES SALMONELLA TYPHIMURIUM, Strain/Indicator: TA2638, Metabolic Activation: NONE, Method: STANDARD PLATE active; positive | Test System: AMES SALMONELLA TYPHIMURIUM, Strain/Indicator: TA7002, Metabolic Activation: NONE, Method: FLUCTUATION (MICROTITER) active; positive | Test System: AMES SALMONELLA TYPHIMURIUM, Strain/Indicator: TA7004, Metabolic Activation: NONE, Method: FLUCTUATION (MICROTITER) active; positive | Test System: AMES SALMONELLA TYPHIMURIUM, Strain/Indicator: TA7005, Metabolic Activation: NONE, Method: FLUCTUATION (MICROTITER) active; positive | Test System: AMES SALMONELLA TYPHIMURIUM, Strain/Indicator: TA7006, Metabolic Activation: NONE, Method: FLUCTUATION (MICROTITER) active; positive | Test System: CHINESE HAMSTER OVARY, Strain/Indicator: CHO-K1-BH4, Metabolic Activation: RAT, LIVER, S-9, 3-METHYLCHOLANTHRENE active; positive | Test System: CHINESE HAMSTER OVARY, Strain/Indicator: CHO-UV5, Metabolic Activation: RAT, LIVER, S-9, 3-METHYLCHOLANTHRENE active; positive | Test System: E. COLI, Strain/Indicator: EE97, Metabolic Activation: NONE, Method: FLUCTUATION TEST active; positive | Test System: E. COLI, Strain/Indicator: WP2 (PKM101), Metabolic Activation: NONE, Method: STANDARD PLATE active; positive | Test System: E. COLI, Strain/Indicator: WP2, Metabolic Activation: NONE, Method: SPOT active; positive | Test System: E. COLI, Strain/Indicator: WP2 UVRA (PKM101), Metabolic Activation: NONE, Method: STANDARD PLATE active; positive | Test System: E. COLI, Strain/Indicator: WP2 UVRA, Metabolic Activation: NONE, Method: SPOT active; positive | Test System: E. COLI, Strain/Indicator: WP2 UVRA, Metabolic Activation: NONE, Method: STANDARD PLATE active; positive | Test System: MOUSE LYMPHOMA, Strain/Indicator: L5178Y (TK+/TK-), Metabolic Activation: NONE, Method: SUSPENSION/PLATE active; positive
